Source: patent US20240402081A1, “MOLECULAR DIFFUSION EVALUATION METHOD AND SYSTEM” (Nippon Telegraph and Telephone Corporation, priority 2021, published 2024)

Test: SPR measurement of tracer molecule diffusion in a hydrogel layer (channel chip)
Assay type: physicochemical
Conditions: aqueous solutions of glucose and ethanol as tracer molecules; FIG. 5
Procedure: Hereinafter, a molecular diffusion evaluation method according to an embodiment of the present invention will be described with reference to FIG. 1. First, in step S101, a solution in which a target molecule (tracer molecule) is dissolved is introduced into a channel. The channel is formed on, for example, a measurement chip used by being attached to a surface plasmon resonance (SPR) measurement system. The channel includes a measurement area by surface plasmon resonance and a hydrogel layer provided in the middle of the measurement area. […] In a process where the solution in which the target molecule is dissolved passes through the portion where the hydrogel layer is not formed and the portion where the hydrogel layer is formed, the refractive index (SPR angle) at each portion is measured in time series, and the refractive index change (time change in SPR angle) at each portion is acquired. The refractive index change measured in the process of passing through the portion where the hydrogel layer is not formed is the first measurement result. In addition, the refractive index change measured in the process of passing through the portion where the hydrogel layer is formed is the second measurement result. Next, in step S103, the diffusion rate of molecules in the hydrogel is evaluated by comparing the first measurement result with the second measurement result (evaluation step). […]

diffusion rate in the acrylamide gel, comparison of scaled SPR angle change curves: different
Compound: CCO [ethanol]
